Data published in ChEMBL document CHEMBL1127098, “Anticonvulsant activity of glycine-site NMDA antagonists. 1. 2-carboxyl prodrugs of 5,7-dichlorokynurenic acid” (Bioorg Med Chem Lett, 1993).
Blank lines part the entries; values can stand above or below the molecule they belong to.

Tests used:
Mus musculus [1] = organism: Mus musculus; assay: Tested for the anticonvulsant activity by the antagonism of the audiogenic seizures in DBA/2 mice after 30 minutes; format: functional; details: 0.5 h
Mus musculus [2] = assay: Tested for anticonvulsant activity by the antagonism of audiogenic seizures in DBA/2 mice and number of mice protected from tonic seizure/number of mice tested at 250 mg/kg dose after 15 mins was reported (8 out of 8); format: functional
Mus musculus [3] = assay: Tested for the effective dose required for anticonvulsant activity when given intraperitoneally after 15 minutes in DBA/2 mice; format: functional; details: ip, 0.25 h
Mus musculus [4] = assay: Tested for anticonvulsant activity by the antagonism of audiogenic seizures in DBA/2 mice and number of mice protected from tonic seizure/number of mice tested at 250 mg/kg dose after 30 mins was reported (8 out of 8); format: functional
Mus musculus [5] = assay: Tested for anticonvulsant activity by the antagonism of audiogenic seizures in DBA/2 mice and number of mice protected from tonic seizure/number of mice tested at 250 mg/kg dose after 60 mins was reported (7 out of 8); format: functional
Mus musculus [6] = assay: Tested for anticonvulsant activity by the antagonism of audiogenic seizures in DBA/2 mice and number of mice protected from tonic seizure/number of mice tested at 250 mg/kg dose after 120 mins was reported (2 out of 8); format: functional
Mus musculus [7] = assay: Tested for anticonvulsant activity by the antagonism of audiogenic seizures in DBA/2 mice and number of mice protected from tonic seizure/number of mice tested at 250 mg/kg dose after 120 mins was reported (3 out of 7); format: functional
Mus musculus [8] = assay: Tested for anticonvulsant activity by the antagonism of audiogenic seizures in DBA/2 mice and number of mice protected from tonic seizure/number of mice tested at 250 mg/kg dose after 15 mins was reported (5 out of 7); format: functional
Mus musculus [9] = assay: Tested for anticonvulsant activity by the antagonism of audiogenic seizures in DBA/2 mice and number of mice protected from tonic seizure/number of mice tested at 250 mg/kg dose after 30 mins was reported (7 out of 8); format: functional
Mus musculus [10] = assay: Tested for anticonvulsant activity by the antagonism of audiogenic seizures in DBA/2 mice and number of mice protected from tonic seizure/number of mice tested at 250 mg/kg dose after 60 mins was reported (2 out of 8); format: functional
Mus musculus [11] = assay: Tested for anticonvulsant activity by the antagonism of audiogenic seizures in DBA/2 mice and number of mice protected from tonic seizure/number of mice tested at 250 mg/kg dose after 120 mins was reported (3 out of 9); format: functional
Mus musculus [12] = assay: Tested for anticonvulsant activity by the antagonism of audiogenic seizures in DBA/2 mice and number of mice protected from tonic seizure/number of mice tested at 250 mg/kg dose after 15 mins was reported (0 out of 8); format: functional
Mus musculus [13] = assay: Tested for anticonvulsant activity by the antagonism of audiogenic seizures in DBA/2 mice and number of mice protected from tonic seizure/number of mice tested at 250 mg/kg dose after 30 mins was reported (1 out of 8); format: functional
Mus musculus [14] = assay: Tested for anticonvulsant activity by the antagonism of audiogenic seizures in DBA/2 mice and number of mice protected from tonic seizure/number of mice tested at 250 mg/kg dose after 60 mins was reported (3 out of 8); format: functional
Mus musculus [15] = assay: Tested for anticonvulsant activity by the antagonism of audiogenic seizures in DBA/2 mice and number of mice protected from tonic seizure/number of mice tested at 250 mg/kg dose after 15 mins was reported (1 out of 8); format: functional
Mus musculus [16] = assay: Tested for anticonvulsant activity by the antagonism of audiogenic seizures in DBA/2 mice and number of mice protected from tonic seizure/number of mice tested at 250 mg/kg dose after 30 mins was reported (5 out of 8); format: functional
Mus musculus [17] = assay: Tested for anticonvulsant activity by the antagonism of audiogenic seizures in DBA/2 mice and number of mice protected from tonic seizure/number of mice tested at 250 mg/kg dose after 60 mins was reported (4 out of 8); format: functional
Mus musculus [18] = assay: Tested for anticonvulsant activity by the antagonism of audiogenic seizures in DBA/2 mice and number of mice protected from tonic seizure/number of mice tested at 250 mg/kg dose after 120 mins was reported (1 out of 8); format: functional
Mus musculus [19] = assay: Tested for the effective dose required for anticonvulsant activity when given intraperitoneally after 30 minutes in DBA/2 mice; format: functional; details: ip, 0.5 h
Mus musculus [20] = assay: Tested for anticonvulsant activity by the antagonism of audiogenic seizures in DBA/2 mice and number of mice protected from tonic seizure/number of mice tested at 250 mg/kg dose after 15 mins was reported (4 out of 8); format: functional
Mus musculus [21] = assay: Tested for anticonvulsant activity by the antagonism of audiogenic seizures in DBA/2 mice and number of mice protected from tonic seizure/number of mice tested at 250 mg/kg dose after 30 mins was reported (1 out of 6); format: functional
Mus musculus [22] = assay: Tested for anticonvulsant activity by the antagonism of audiogenic seizures in DBA/2 mice and number of mice protected from tonic seizure/number of mice tested at 250 mg/kg dose after 120 mins was reported (0 out of 6); format: functional
Mus musculus [23] = assay: Tested for anticonvulsant activity by the antagonism of audiogenic seizures in DBA/2 mice and number of mice protected from tonic seizure/number of mice tested at 250 mg/kg dose after 60 mins was reported (1 out of 6); format: functional
Mus musculus [24] = assay: Tested for anticonvulsant activity by the antagonism of audiogenic seizures in DBA/2 mice and number of mice protected from tonic seizure/number of mice tested at 250 mg/kg dose after 30 mins was reported (0 out of 8); format: functional
Mus musculus [25] = assay: Tested for anticonvulsant activity by the antagonism of audiogenic seizures in DBA/2 mice and number of mice protected from tonic seizure/number of mice tested at 250 mg/kg dose after 120 mins was reported (0 out of 8); format: functional
Mus musculus [26] = assay: Tested for anticonvulsant activity by the antagonism of audiogenic seizures in DBA/2 mice and number of mice protected from tonic seizure/number of mice tested at 250 mg/kg dose after 60 mins was reported (5 out of 8); format: functional
[27] = Half-life at pH 7.4; format: ADME; details: buffer
Mus musculus [28] = assay: Tested for anticonvulsant activity by the antagonism of audiogenic seizures in DBA/2 mice and number of mice protected from tonic seizure/number of mice tested at 250 mg/kg dose after 60 mins was reported (5 out of 7); format: functional
Mus musculus [29] = assay: Tested for anticonvulsant activity by the antagonism of audiogenic seizures in DBA/2 mice and number of mice protected from tonic seizure/number of mice tested at 250 mg/kg dose after 30 mins was reported (7 out of 7); format: functional
Mus musculus [30] = assay: Tested for anticonvulsant activity by the antagonism of audiogenic seizures in DBA/2 mice and number of mice protected from tonic seizure/number of mice tested at 250 mg/kg dose after 15 mins was reported (7 out of 7); format: functional
Mus musculus [31] = assay: Tested for anticonvulsant activity by the antagonism of audiogenic seizures in DBA/2 mice and number of mice protected from tonic seizure/number of mice tested at 250 mg/kg dose after 60 mins was reported (1 out of 7); format: functional
Mus musculus [32] = assay: Tested for anticonvulsant activity by the antagonism of audiogenic seizures in DBA/2 mice and number of mice protected from tonic seizure/number of mice tested at 250 mg/kg dose after 120 mins was reported (1 out of 7); format: functional
Mus musculus [33] = assay: Tested for the effective dose required for anticonvulsant activity when given intraperitoneally; format: functional; details: ip

Compound: CC(CN(C)C)OC(=O)c1cc(O)c2c(Cl)cc(Cl)cc2n1 (stereo unspecified)
ED50 (Mus musculus [1]): 138 mg/kg | No. of mouse protected (Mus musculus [2]): 8 | ED50 (Mus musculus [3]): 62 mg/kg | No. of mouse protected (Mus musculus [4]): 8 | No. of mouse protected (Mus musculus [5]): 7 | No. of mouse protected (Mus musculus [6]): 2

Compound: CN(C)CCCOC(=O)c1cc(O)c2c(Cl)cc(Cl)cc2n1
No. of mouse protected (Mus musculus [7]): 3 | No. of mouse protected (Mus musculus [8]): 5 | No. of mouse protected (Mus musculus [9]): 7 | No. of mouse protected (Mus musculus [10]): 2

Compound: O=C(OCCN1CCOCC1)c1cc(O)c2c(Cl)cc(Cl)cc2n1
No. of mouse protected (Mus musculus [11]): 3 | No. of mouse protected (Mus musculus [12]): 0 | No. of mouse protected (Mus musculus [13]): 1 | No. of mouse protected (Mus musculus [14]): 3

Compound: CN(C)CCNC(=O)c1cc(O)c2c(Cl)cc(Cl)cc2n1
No. of mouse protected (Mus musculus [15]): 1 | No. of mouse protected (Mus musculus [16]): 5 | No. of mouse protected (Mus musculus [17]): 4 | No. of mouse protected (Mus musculus [18]): 1 | ED50 (Mus musculus [19]): 303 mg/kg

Compound: C[N+](C)(C)CCNC(=O)c1cc(O)c2c(Cl)cc(Cl)cc2n1.[I-]
No. of mouse protected (Mus musculus [20]): 4 | No. of mouse protected (Mus musculus [21]): 1 | No. of mouse protected (Mus musculus [22]): 0 | No. of mouse protected (Mus musculus [23]): 1

Compound: O=C(NCCN1CCOCC1)c1cc(O)c2c(Cl)cc(Cl)cc2n1
No. of mouse protected (Mus musculus [15]): 1 | No. of mouse protected (Mus musculus [24]): 0 | No. of mouse protected (Mus musculus [10]): 2 | No. of mouse protected (Mus musculus [25]): 0

Compound: O=C(OCCN1CCCC1)c1cc(O)c2c(Cl)cc(Cl)cc2n1
No. of mouse protected (Mus musculus [2]): 8 | ED50 (Mus musculus [3]): 128 mg/kg | No. of mouse protected (Mus musculus [9]): 7 | No. of mouse protected (Mus musculus [26]): 5 | No. of mouse protected (Mus musculus [25]): 0

half-life [27]: 22 min
Compound: CCN(CC)CCOC(=O)c1cc(O)c2c(Cl)cc(Cl)cc2n1
No. of mouse protected (Mus musculus [2]): 8 | ED50 (Mus musculus [3]): 98 mg/kg | No. of mouse protected (Mus musculus [4]): 8 | No. of mouse protected (Mus musculus [28]): 5 | No. of mouse protected (Mus musculus [18]): 1 | ED50 (Mus musculus [19]): 171 mg/kg

Compound: CC(C)N(CCOC(=O)c1cc(O)c2c(Cl)cc(Cl)cc2n1)C(C)C
No. of mouse protected (Mus musculus [29]): 7 | No. of mouse protected (Mus musculus [30]): 7 | ED50 (Mus musculus [3]): 152 mg/kg | No. of mouse protected (Mus musculus [31]): 1 | No. of mouse protected (Mus musculus [32]): 1

Compound: O=C(O)c1cc(O)c2c(Cl)cc(Cl)cc2n1
No. of mouse protected (Mus musculus [24]): 0 | ED50 (Mus musculus [33]): 250 mg/kg
